# According to patent publication US20250314668A1, “DNAZYMES FOR SENSING AND IMAGING TARGET MOLECULES” (BOARD OF REGENTS, THE UNIVERSITY OF TEXAS SYSTEM, priority 2024, published 2025):
# Read-outs that look alike come from different tables or passages of the source. In the oligonucleotide strings, read from the 5' end, every base follows the letter of its sugar. An asterisk marks phosphorothioate; unmarked linkages are phosphodiester. Other units and linkages are bracketed, terminal groups are in braces. A string of capitals states the bases alone. {3IABkFQ} = Iowa Black FQ quencher; d = 2'-deoxy (DNA); m = 2'-O-methyl
# Assays:
# SH-SY5Y cells = assay: Fluorescence imaging of Cu^+ and Cu^2+ in live SH-SY5Y cells (PDTC, BCS, Aβ40); assay type: cell-based, human
# cultured cell lines = assay: Iron redox changes in cultured cell lines with ferroptosis inducers and NCOA4 regulators; assay type: cell-based
# HepG2 or Hela cells = assay: Simultaneous imaging of labile Fe^2+ and Fe^3+ in living cells treated with Tf or DFO; assay type: cell-based; conditions: treated cells
# Method: For delivery of DNAzyme sensors using PEI (66, 67), the corresponding Fe(II)-H5-ErS, Fe(II)-H5-iErS, Fe(III)-B12-ErS, and Fe(III)-B12-iErS (final concentration of 10 μM) were mixed in the Fe^2+ buffer and Fe^3+ buffer separately. The mixtures were annealed at 95° C. for 5 min and stored at room temperature to allow full hybridization. PEI (25 kDa) was dissolved in water at 1 mg/ml. […] The normal cell medium was replaced with iron-deficient medium before the PEI-ErS or PEI-iErS was added to the cells grown in the plates.
# After incubating HepG2 cells with PEI-ErS or PEI-iErS complex for 4 hours, cells were washed with phosphate-buffered saline (PBS) twice to remove excess amounts of complexes in medium. Then, the cells were stained by Hoechst 33258 for 15 min. Images were obtained using a Zeiss LSM 880 confocal microscope at 63× oil objective lens with numerical aperture 1.40 and immersion medium Immersol 518 F (Zeiss) at the UIUC IGB Core Facilities. Florescence emission of Hoechst 33258 was measured over 450 to 500 nm with excitation at 401 nm. Fe(II)-H5 was excited by 488 nm and measured over 500 to 550 nm, and Fe(III)-B12 was excited at 633 nm and measured over 640 to 700 nm. A laser power of 67% and pinhole size of 1 […] (AU) were used for the cellular images. Acquired images were analyzed by ImageJ using JACoP (88, 89). No background subtraction, Z-stacks, Gaussian blur filter, or change thresholds were performed for visualizing the figures. For cell fluorescence quantification, the study quantified the average fluorescence signals intensity in five cells (for TurboFect transfected cells) or five LysoTracker-labeled regions in different cells (for PEI transfected cells), per picture and three pictures per group with Image J (88), for the statistical comparison between groups.
# Simultaneous imaging of labile Fe^2+ and Fe^3+ in living cells: HepG2 or Hela cells were cultured in glass-bottom dishes until about 70% confluence. The cells were pretreated with iron-deficient MEM containing either 100 μM DFO, 100 μM ferric ammonium citrate, […] holo-Tf, or 50 μM Tf for 4 hours, and then, the medium was replaced with an iron-deficient MEM containing PEI-ErS or PEI-iErS complexes or Opti-MEM containing 1 μl of TurboFect transfection reagent as described above for 4 hours. Before imaging, the cells were stained by LysoTracker Red and Hoechst 33258 for 15 min. After washing with PBS, the cells were incubated in iron-deficient MEM or regular DMEM, respectively, during the imaging.
# Data processing and statistical analysis: To have a direct comparison of the iron amount between groups, the background signals were normalized by subtracting the fluorescence signals in iErS groups from the ErS groups (F-F0). No Z-stacks or change thresholds were used for statistical analysis. Graphs were plotted with GraphPad (GraphPad Software Inc.) or Origin (OriginLabs Corporation) and correspond to a single experiment. Bars represent means±SEM. Two-tailed distribution and two-sample equal variance t test were used for analyzing significance. Dixon's Q tests were performed to identify and exclude outliners. *P<0.05, **P<0.01, and ***P <0.001. […] The presented data described the quantification from single representative replicates from those biological replicates.
# [1] = Copper sensor signal turn-on and background in solution (inactive controls, upgraded version); assay type: biochemical; conditions: for activity of inactive sequences to fluorophore labeled substrates: screening of Cu^2+ DNAzyme inactive sequences
# Method: FIGS. 14A-14B depict fluorescence resulting of upgraded Cu DNAzyme. The concentration of Cu^2+ is 8 μM, the concentration of ascorbate is 50 μM.
# Since the DNAzyme sensors are exposed to various nucleic acid enzymes in biological samples during imaging, it is common to have some extent of sensor degradation and dehybridization, which can increase the background signal. Although the study applied modifications to the end of DNA strands to minimize the exonuclease activities, the background could not be fully removed. Thus, it is critical to estimate the background signal levels for accurate background subtraction and more precise signal quantification.
# In this iE design, the catalytic core sequence are converted into complement sequence of the original active sequences.
# [2] = Point mutation gel cleavage assay of Fe^3+ B12 DNAzyme and substrate (heat map); assay type: biochemical; conditions: 100 μM FeCl3, pH 5.5, overnight; for activity of mutated substrate strand normalized to original Fe^3+ B12 Substrate: original DNAzyme strand
# Method: (§1) FIG. 5 depicts a heat map illustrating the impact of point mutations within the catalytic core of the Fe^3+ B12 DNAzyme, against the unaltered Fe^3+ B12 substrate strand for comparative analysis with 5 mM Bis Tris, 40 mM Sodium Acetate, 200 mM NaCl at pH 5.5 with 100 μM FeCl3. The reaction occurred overnight at room temperature and analyzed by polyacrylamide gel electrophoresis.
# as §1, with “FIG. 6” for “FIG. 5”, “B12 Substrate strand,” for “B12 DNAzyme,”, “B12 DNAzyme” for “B12 substrate”
# (§2) Point mutations were intentionally introduced into the Fe^3+ B12 DNAzyme catalytic core, and subsequently assessed in comparison to the unaltered Fe^3+ B12 substrate strand under controlled reaction conditions. These conditions included a solution comprising 5 mM Bis Tris, 40 mM Sodium Acetate, 200 mM NaCl at pH 5.5, with concentrations of 250 nM for both the mutated B12 DNAzyme Strand and the FAM-labeled Original B12 Substrate Strand, along with 100 μM FeCl3. The reaction proceeded overnight at ambient temperature, followed by analysis via electrophoresis on a 15% denaturing gel.
# as §2, with “Fe^3+ B12 Substrate Strand's catalytic core,” for “Fe^3+ B12 DNAzyme catalytic core,”, “Fe^3+ B12 DNAzyme strand under” for “Fe^3+ B12 substrate strand under”, “both the Original B12 DNAzyme” for “both the mutated B12 DNAzyme”, “the FAM-labeled mutated B12 Substrate” for “the FAM-labeled Original B12 Substrate”
# [3] = PAGE gel activity assays of Fe^3+ B12 DNAzyme (cleavage site, truncation, pH, buffer, mutation combinations, selectivity); assay type: biochemical; conditions: presence of Fe^3+
# From the text: RNA Cleavage Dependence of Fe^2+ H5 and Fe^3+ B12 DNAzymes: To investigate the Fe^2+ H5 and Fe^3+ B12 DNAzymes, various cleavage site modifications were incorporated into the substrate strands. The original Fe^2+ H5 DNAzyme was combined with Fe^2+ H5 substrate strands containing either a 2′-hydroxyl (2′OH), 2′-hydrogen (2′H), or 2′O-methyl (2′OMe) at the cleavage site. The original Fe^2+ H5 DNAzyme cleaves the Fe^2+ H5 substrate strand containing 2′OH at the cleavage site in the presence of Fe^2+ under anaerobic conditions. […] Similarly, the original Fe^3+ B12 DNAzyme was combined with Fe^3+ B12 substrate strands containing either 2′OH, 2′H, or 2′OMe at the cleavage site. The original Fe^3+ B12 DNAzyme cleaves the Fe^3+ B12 substrate strand containing 2′OH at the cleavage site in the presence of Fe^3+. […]
# Truncations of Fe^2+ H5 and Fe^3+ B12 DNAzymes' Binding Arms: To further investigate the Fe^2+ H5 and Fe^3+ B12 DNAzymes, the DNAzymes were truncated at the 5′ and 3′ ends and tested using the FAM-labeled original substrate strand through activity assays assessed by PAGE gel. […]
# Similarly, the pH dependency of Fe^3+ B12 was tested across a range of pH 4.0 to 6.0 with 100 μM FeCl3. […] Fluorescence intensity was monitored over time using a 5′ Alexa Fluor™ 647-labeled substrate and a 3′ Iowa Black™ RQ quencher-labeled DNAzyme at an enzyme-to-substrate ratio of 1:1. […]
compound,measurement,setting,value
"Cc1cc(-c2ccc(S(=O)(=O)O)cc2)c2ccc3c(-c4ccc(S(=O)(=O)O)cc4)cc(C)nc3c2n1 [BCS, bathocuproine disulphonate]",fluorescence intensity of copper DNAzyme,SH-SY5Y cells; 150 μM or 200 μM BCS overnight,significant decrease
[Cl-].[Cl-].[Co+2] [CoCl2],Fe^3+/Fe^2+ ratio (Fe redox) with elevation of NCOA4,cultured cell lines,increase
"CC(=O)N(O)CCCCCNC(=O)CCC(=O)N(O)CCCCCNC(=O)CCC(=O)N(O)CCCCCN [DFO, deferoxamine, reference compound]",decrease of the Fe^3+/Fe^2+ ratio,HepG2 or Hela cells,2.4 fold
COC(=O)CNC(=O)C(=O)OC [DMOG],Fe^3+/Fe^2+ ratio (Fe redox) with elevation of NCOA4,cultured cell lines; cells incubated with NCOA4 stimulator,increase
"S=C(S)N1CCCC1 [PDTC, pyrrolidine dithiocarba-mate]",fluorescence signal of both Cu^+ and Cu^2+ sensor,SH-SY5Y cells; 50 PM PDTC,significant increase
same,fluorescence signal of both Cu^+ and Cu^2+ sensor,"SH-SY5Y cells; addition of PDTC with Cu^2+, dose-dependent manner",increased
Amyloid-β (1-40) peptide [Aβ40],fluorescence signals of intracellular Cu^+ and Cu^2+ DNAzyme,"SH-SY5Y cells; pretreated 24 h with monomers, oligomers and fibrils",enhanced
Aβ40 oligomers: oligomeric aggregation state of Aβ40,fluorescence intensity of Cu^+ and Cu^2+ DNAzyme,"SH-SY5Y cells; 10 μM, 24 h",significantly increased
"Cu2 iE complement: inactive enzyme strand (TTTCGCCATCTTCTGGTCCTTATAGTGACT; DNA, backbone not given here; further chemistry not fully specified)",activity of inactive sequences to fluorophore labeled substrates,[1],minimum activity
"Cu2 iE polyT 3IBFQ: inactive enzyme strand (TTTCGCCATCTTCTTTTTTTTATAGTGACT; DNA, 3' {3IABkFQ}, backbone not given here)",background signal of inactive sequence,[1]; both fluorophore and quencher labels,minimum background signal
"Cu2 iE polyT: inactive enzyme strand (TTTCGCCATCTTCTTTTTTTTATAGTGACT; DNA, backbone not given here; further chemistry not fully specified)",activity of inactive sequences to fluorophore labeled substrates,[1],minimum activity
"Fe^3+ B12 DNAzyme C20T (GCGGCATGCGCGTTTGCGGTACCTAAACGCTCCTAATAGAG; DNA, backbone not given here)",activity of mutated DNAzyme strand normalized to original Fe^3+ B12 DNAzyme,[2]; FAM-labeled original substrate,heightened activity
"Fe^3+ B12 Original Substrate (2′H) (CTCTATTAGGGAGACTCGCATGCCGC; DNA, backbone not given here)",cleavage by the original Fe^3+ B12 DNAzyme,[3],does not cleave
Fe^3+ B12 Original Substrate (2′OMe) (dCdTdCdTdAdTdTdAmGdGdGdAdGdAdCdTdCdGdCdAdTdGdCdCdGdC),cleavage by the original Fe^3+ B12 DNAzyme,[3],does not cleave
"Fe^3+ B12 Substrate A14G (CTCTATTAGGGAGGCTCGCATGCCGC; listed as DNA, chemistry not fully specified)",activity of mutated substrate strand normalized to original Fe^3+ B12 Substrate,[2],heightened activity
"Fe^3+ B12 Substrate C15A (CTCTATTAGGGAGAATCGCATGCCGC; listed as DNA, chemistry not fully specified)",activity of mutated substrate strand normalized to original Fe^3+ B12 Substrate,[2],heightened activity
